Measured values taken from ChEMBL document CHEMBL6092192 (J Med Chem, 2024).
Calls of active or inactive are those of the source. The rule behind the calls is not given here.

Tests used:
[1] = Toxicity in BALB/c nude mouse assessed as effect on liver liver injury at 100 mg/kg/day, IG measured after 21 days in presence of paclitaxel by H and E staining based analysis; format: organism-based; details: in vivo, po, 504 h, time 21 day
[2] = MRT (0 to t) in 12 hrs fasted Sprague-Dawley rat at 1 mg/kg, iv measured upto 720 mins by HPLC-MS/MS analysis; format: ADME, organism-based; details: in vivo
[3] = Toxicity in Sprague-Dawley rat assessed as change in body weight at 250 to 1000 mg/kg, po measured for 14 days administered as single dose; format: organism-based; details: in vivo, 336 h, dose 250-1000 mg/kg, time 14 day
SW620/AD300 [4] = test: Antitumor activity against human SW620/AD300 cells xenografted in male BALB/c nude mouse model assessed as nuclear pyknosis at 100 mg/kg/day, IG in presence of paclitaxel by H and E staining based analysis; format: functional, organism-based
[5] = molecular target: Multidrug resistance-associated protein 1 (Homo sapiens, UniProt P33527); test: Induction of thermal stabilization of ABCC1 in human SW620/AD300 cells at 200 uM measured after 30 mins by thermal shift assay; format: cell-based; details: sw620/ad300, 0.5 h
[6] = Toxicity in BALB/c nude mouse xenografted with […] CT26/TAXOL cells assessed as effect on heart at 100 mg/kg/day, IG in presence of paclitaxel/anti-PD-1 measured after 14 days by H and E staining based analysis; format: organism-based; details: in vivo, po, 336 h, time 14 day
[7] = Half life in 12 hrs fasted Sprague-Dawley rat at 10 mg/kg, po measured upto 720 mins by HPLC-MS/MS analysis; format: ADME, organism-based; details: in vivo
KB 3-1 [8] = test: Reversal of paclitaxel resistance in human KB 3-1 cells assessed as reversal fold by measuring ratio of paclitaxel IC50 to paclitaxel IC50 in presence of test compound at 2 uM incubated for 72 hrs by MTT assay; format: functional
CT26/TAXOL [9] = test: Antitumor T-cell immune response in […] cells xenografted in BALB/c nude mouse model assessed as increase in CD8+ T-cell infiltration at 100 mg/kg/day, IG in presence of anti-PD-1/paclitaxel measured after 14 days by immunofluorescence staining based analysis; format: functional, organism-based; details: time 14.0 day
[10] = AUC (0 to t) in 12 hrs fasted Sprague-Dawley rat at 10 mg/kg, po measured upto 720 mins by HPLC-MS/MS analysis; format: ADME, organism-based; details: in vivo
[11] = molecular target: T1, ATP-dependent translocase ABCB1 (Homo sapiens, UniProt P08183); test: Inhibition of ABCB1 in human SW620/AD300 cells assessed as increase in [3H]-PTX accumulation at 2 to 4 uM incubated for 4 hrs by liquid scintillation analysis; format: cell-based; details: sw620/ad300, 4 h, dose 2-4 µM
[12] = MRT (0 to t) in 12 hrs fasted Sprague-Dawley rat at 10 mg/kg, po measured upto 720 mins by HPLC-MS/MS analysis; format: ADME, organism-based; details: in vivo
CD8-positive T cell = test: Activation of immune response in human CD8-positive T cell assessed as increase in TNF-alpha level at 4 uM by ELISA method; format: functional, cell-based
KB 3-1 [13] = test: Cytotoxicity against human KB 3-1 cells assessed as survival rate at 5 uM measured after 72 hrs by MTT assay relative to control; format: functional; details: read-out: Survival
SW620/AD300 [14] = test: Antitumor activity against human SW620/AD300 cells xenografted in male BALB/c nude mouse model assessed as increase in apoptosis at 100 mg/kg/day, IG in presence of paclitaxel by tunel staining based immunofluorescence analysis; format: functional, organism-based
[15] = Half life in 12 hrs fasted Sprague-Dawley rat at 1 mg/kg, iv measured upto 720 mins by HPLC-MS/MS analysis; format: ADME, organism-based; details: in vivo
SW620/AD300 [16] = test: Antitumor activity against human SW620/AD300 cells xenografted in male BALB/c nude mouse model assessed as reduction in tumor weight at 100 mg/kg/day, IG measured after 21 days in presence of paclitaxel; format: functional, organism-based; details: time 21.0 day
[17] = Reversal of paclitaxel resistance in HEK293 cells harbouring ABCB1 assessed as reversal fold by measuring ratio of paclitaxel IC50 to paclitaxel IC50 in presence of test compound at 4 uM incubated for 72 hrs by MTT assay; format: functional, Homo sapiens
[18] = Cmax in 12 hrs fasted Sprague-Dawley rat at 10 mg/kg, po measured upto 720 mins by HPLC-MS/MS analysis; format: ADME, organism-based; details: in vivo
[19] = Toxicity in BALB/c nude mouse xenografted with […] CT26/TAXOL cells assessed as effect on liver at 100 mg/kg/day, IG in presence of paclitaxel measured after 14 days by H and E staining based analysis; format: organism-based; details: in vivo, po, 336 h, time 14 day
SW620/AD300 [20] = test: Reversal of paclitaxel resistance in human SW620/AD300 cells assessed as reversal fold by measuring ratio of paclitaxel IC50 to paclitaxel IC50 in presence of test compound incubated for 72 hrs by MTT assay; format: functional
[21] = molecular target: T1, ATP-dependent translocase ABCB1; test: Activation of ABCB1 ATPase activity (unknown origin) infected in insect cells by measuring fold change at upto 40 uM incubated for 20 mins in presence of Mg-ATP by spectrophotometric analysis; details: Insect cell, read-out: FC
KB-C2 = test: Reversal of paclitaxel resistance in human KB-C2 cells assessed as reversal fold by measuring ratio of paclitaxel IC50 to paclitaxel IC50 in presence of test compound at 4 uM incubated for 72 hrs by MTT assay; format: functional
[22] = Toxicity in BALB/c nude mouse xenografted with […] CT26/TAXOL cells assessed as change in body weight at 100 mg/kg/day, IG measured upto 14 days; format: organism-based; details: in vivo, po, 336 h, time < 14 day
KB 3-1 [23] = test: Reversal of paclitaxel resistance in human KB 3-1 cells assessed as reversal fold by measuring ratio of paclitaxel IC50 to paclitaxel IC50 in presence of test compound at 4 uM incubated for 72 hrs by MTT assay; format: functional
CT26/TAXOL [24] = test: Antitumor T-cell immune response in […] cells xenografted in BALB/c nude mouse model assessed as reduction in tumor growth at 100 mg/kg/day, IG measured after 14 days; format: functional, organism-based; details: time 14.0 day
[25] = Toxicity in BALB/c nude mouse xenografted with […] CT26/TAXOL cells assessed as effect on brain at 100 mg/kg/day, IG in presence of paclitaxel measured after 14 days by H and E staining based analysis; format: organism-based; details: in vivo, po, 336 h, time 14 day
[26] = Clearance in 12 hrs fasted Sprague-Dawley rat at 1 mg/kg, iv measured upto 720 mins by HPLC-MS/MS analysis; format: ADME, organism-based; details: in vivo
SW620/AD300 [27] = test: Antitumor activity against human SW620/AD300 cells xenografted in male BALB/c nude mouse model assessed as reduction in tumor volume at 100 mg/kg/day, IG measured after 21 days in presence of paclitaxel; format: functional, organism-based; details: time 21.0 day
Cytochrome P450 3A4 = Cytochrome P450 3A4 (Homo sapiens, UniProt P08684); test: Activation of recombinant CYP3A4 in human liver microsomes at 30 uM measured upto 40 mins in presence of NADPH generating system by fluorescence based analysis; format: ADME, Microsome
Chain of Cytochrome P450 3A4 (P08684 whole entry): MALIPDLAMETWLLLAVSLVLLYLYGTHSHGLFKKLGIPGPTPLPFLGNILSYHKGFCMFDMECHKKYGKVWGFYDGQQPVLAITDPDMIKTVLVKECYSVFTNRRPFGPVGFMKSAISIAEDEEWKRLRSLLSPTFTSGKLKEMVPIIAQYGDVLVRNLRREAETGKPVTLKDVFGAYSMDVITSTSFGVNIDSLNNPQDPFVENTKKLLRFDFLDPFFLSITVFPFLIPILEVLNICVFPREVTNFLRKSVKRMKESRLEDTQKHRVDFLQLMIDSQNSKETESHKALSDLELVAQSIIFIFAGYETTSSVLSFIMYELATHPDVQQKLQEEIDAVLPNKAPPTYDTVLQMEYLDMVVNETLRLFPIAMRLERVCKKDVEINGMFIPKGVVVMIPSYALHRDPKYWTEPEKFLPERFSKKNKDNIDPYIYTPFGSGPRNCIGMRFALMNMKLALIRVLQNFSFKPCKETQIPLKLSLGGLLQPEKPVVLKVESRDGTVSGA

T1 sequence (P08183 whole entry): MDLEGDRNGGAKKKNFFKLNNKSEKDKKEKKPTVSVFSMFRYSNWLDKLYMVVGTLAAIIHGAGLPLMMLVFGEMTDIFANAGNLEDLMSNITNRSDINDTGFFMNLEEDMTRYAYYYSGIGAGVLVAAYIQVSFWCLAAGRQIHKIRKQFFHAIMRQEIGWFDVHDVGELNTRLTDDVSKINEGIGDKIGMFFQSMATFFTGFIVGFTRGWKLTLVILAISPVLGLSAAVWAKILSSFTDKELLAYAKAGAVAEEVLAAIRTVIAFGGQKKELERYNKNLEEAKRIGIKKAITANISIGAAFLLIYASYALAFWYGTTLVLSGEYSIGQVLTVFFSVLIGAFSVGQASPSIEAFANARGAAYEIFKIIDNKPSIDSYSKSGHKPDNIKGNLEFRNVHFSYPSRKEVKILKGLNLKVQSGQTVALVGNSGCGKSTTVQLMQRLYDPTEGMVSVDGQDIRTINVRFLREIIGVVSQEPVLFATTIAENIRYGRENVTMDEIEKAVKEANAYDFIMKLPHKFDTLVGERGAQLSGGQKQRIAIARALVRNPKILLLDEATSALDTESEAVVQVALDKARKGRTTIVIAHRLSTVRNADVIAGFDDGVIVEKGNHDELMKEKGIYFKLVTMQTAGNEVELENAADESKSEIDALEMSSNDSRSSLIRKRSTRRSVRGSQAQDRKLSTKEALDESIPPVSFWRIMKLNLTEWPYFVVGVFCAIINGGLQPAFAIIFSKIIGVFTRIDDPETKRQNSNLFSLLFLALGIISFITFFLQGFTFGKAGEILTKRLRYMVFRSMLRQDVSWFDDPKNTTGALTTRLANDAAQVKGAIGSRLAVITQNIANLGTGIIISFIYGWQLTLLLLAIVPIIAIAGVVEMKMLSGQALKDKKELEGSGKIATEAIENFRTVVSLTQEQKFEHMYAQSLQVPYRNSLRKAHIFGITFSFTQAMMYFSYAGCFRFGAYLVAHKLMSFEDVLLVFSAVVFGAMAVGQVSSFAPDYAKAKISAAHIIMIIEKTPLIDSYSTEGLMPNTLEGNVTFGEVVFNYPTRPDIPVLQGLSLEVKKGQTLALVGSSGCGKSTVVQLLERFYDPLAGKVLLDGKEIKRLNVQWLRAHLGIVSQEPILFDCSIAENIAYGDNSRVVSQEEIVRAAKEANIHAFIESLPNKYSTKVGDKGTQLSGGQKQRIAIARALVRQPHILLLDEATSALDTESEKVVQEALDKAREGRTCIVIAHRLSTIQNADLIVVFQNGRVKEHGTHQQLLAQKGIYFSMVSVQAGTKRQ
Chain of Multidrug resistance-associated protein 1 (P33527 whole entry): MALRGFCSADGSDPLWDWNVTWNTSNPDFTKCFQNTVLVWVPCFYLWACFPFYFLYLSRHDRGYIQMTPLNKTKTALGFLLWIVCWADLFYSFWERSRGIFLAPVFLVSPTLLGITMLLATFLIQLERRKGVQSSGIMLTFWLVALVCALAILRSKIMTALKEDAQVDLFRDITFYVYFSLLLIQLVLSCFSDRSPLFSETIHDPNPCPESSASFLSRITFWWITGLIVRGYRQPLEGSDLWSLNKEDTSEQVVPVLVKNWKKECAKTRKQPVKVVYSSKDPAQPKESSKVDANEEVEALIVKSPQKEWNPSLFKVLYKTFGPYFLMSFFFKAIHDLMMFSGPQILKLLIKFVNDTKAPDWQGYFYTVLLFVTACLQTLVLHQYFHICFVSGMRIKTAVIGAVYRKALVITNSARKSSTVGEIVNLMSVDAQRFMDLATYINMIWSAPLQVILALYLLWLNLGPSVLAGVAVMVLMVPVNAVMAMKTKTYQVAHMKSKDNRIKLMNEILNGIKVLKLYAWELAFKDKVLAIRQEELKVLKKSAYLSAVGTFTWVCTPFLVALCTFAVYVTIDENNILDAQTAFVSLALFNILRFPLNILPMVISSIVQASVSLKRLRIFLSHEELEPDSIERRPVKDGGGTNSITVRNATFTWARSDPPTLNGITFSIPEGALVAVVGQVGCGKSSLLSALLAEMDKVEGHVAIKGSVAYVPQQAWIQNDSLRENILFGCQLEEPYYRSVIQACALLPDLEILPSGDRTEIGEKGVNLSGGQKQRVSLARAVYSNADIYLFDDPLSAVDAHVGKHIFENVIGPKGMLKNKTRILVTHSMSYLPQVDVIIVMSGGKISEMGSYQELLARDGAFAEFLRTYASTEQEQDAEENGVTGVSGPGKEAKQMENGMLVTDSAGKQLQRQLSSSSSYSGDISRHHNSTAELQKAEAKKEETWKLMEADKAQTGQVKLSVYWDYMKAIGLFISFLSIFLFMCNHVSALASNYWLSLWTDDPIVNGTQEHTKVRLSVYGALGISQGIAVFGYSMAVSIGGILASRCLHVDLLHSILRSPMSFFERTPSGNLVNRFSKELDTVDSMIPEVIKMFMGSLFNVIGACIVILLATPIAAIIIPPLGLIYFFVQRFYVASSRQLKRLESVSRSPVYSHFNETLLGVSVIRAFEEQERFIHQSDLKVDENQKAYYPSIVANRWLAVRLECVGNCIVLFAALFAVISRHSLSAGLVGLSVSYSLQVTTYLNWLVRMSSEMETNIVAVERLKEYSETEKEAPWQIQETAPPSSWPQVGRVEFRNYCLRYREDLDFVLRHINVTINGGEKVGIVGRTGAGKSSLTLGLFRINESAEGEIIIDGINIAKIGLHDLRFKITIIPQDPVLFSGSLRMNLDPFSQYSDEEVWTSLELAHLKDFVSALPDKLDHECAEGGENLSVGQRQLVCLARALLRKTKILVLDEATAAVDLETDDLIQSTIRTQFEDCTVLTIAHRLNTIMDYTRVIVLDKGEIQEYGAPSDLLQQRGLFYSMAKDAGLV

Q: Which results are given for O=c1c2c([nH]c3nc(SCc4nc5ccccc5s4)nn13)CCC2?
A: Activity [1]: Non-toxic; MRT last at 12 h [2]: 4.42 h; Activity [3]: Non-toxic; Activity (SW620/AD300 [4]): Active; Activity [5]: Not_active; Activity [6]: Non-toxic; half-life [7]: 4.07 h; Ratio IC50 (KB 3-1 [8]): 1.05; Activity (CT26/TAXOL [9]): Active; AUC(0-t) at 12 h [10]: 5740 ng·h/mL; inhibition (INH) [11]: Active; MRT last at 12 h [12]: 6.87 h; Activity (CD8-positive T cell): Active; viability at 5 µM (KB 3-1 [13]): 95.9%; Activity (SW620/AD300 [14]): Active; half-life [15]: 5.37 h; Activity (SW620/AD300 [16]): Active; Ratio IC50 [17]: 28.25; Cmax [18]: 504 ng/mL; Activity [19]: Non-toxic; Ratio IC50 (SW620/AD300 [20]): 864; fold induction at up to 40 µM [21]: 2.5; Ratio IC50 (KB-C2): 443.74; Activity [22]: Non-toxic; Ratio IC50 (KB 3-1 [23]): 1.39; Activity (CT26/TAXOL [24]): Not active; Compound Showed Negligible Effect; Activity [25]: Non-toxic; clearance [26]: 18.3 mL/min/kg; Activity (SW620/AD300 [27]): Active; Activity (Cytochrome P450 3A4): Active
